Patent US11406622B2, “Glaucocalyxin a derivative, pharmaceutically acceptable salt thereof, or pharmaceutical composition thereof and uses thereof in preparation of drugs for treating psoriasis” (SUZHOU PHARMAVAN CO., LTD., priority 2017, dated 2022)
Like-named read-outs stand apart in the source and are kept apart here.

Legend:
[1] = tested on: BALB/c mice; experiment: Acute toxicity in BALB/c mice, single tail-vein injection (Example 9); format: in vivo, mouse; conditions: single intravenous injection
Description: In this example, Compound 23 and Compound 24 were detected for their acute toxicities, and the detection method was as follows.
Experimental procedure: 40 BALB/c mice, half male and half female, were randomly divided into groups after weight measurement. The weight of an individual should be within the range of the average body weight±20%. Animals should be allowed to acclimatize to the environment for at least 5 days before the test, and healthy (if female, it must be un-pregnant) mice were selected as test animals. The main inspections during the acclimatization period included: whether it met the quality indicators required at the time of ordering; general state check; and whether the weight reached the weight range required by the test. Unqualified abnormal animals were not included in this test. A single tail-vein injection was administrated to the mice at a low, medium, or high dose, which was 5 mg/kg, 10 mg/kg, or 40 mg/kg respectively according to a blank preparation pre-test. An equal volume of vehicle was intravenously injected to establish a control group.
Mice were observed once respectively at 0 to 2 hours and 4 to 6 hours after each administration. If toxic symptoms occurred, the number of observations could be increased. (2) Gross anatomy observation: All the surviving mice in each group were dissected and observed on the 8th day of the experiment. The abnormal organs and tissues found in the observation of administration sites and in the gross anatomy observation that might be related to the test samples were photographed and recorded. (3) Disposal of dying animals: The state of the mouse and the observation time were recorded, and the body weight was measured. (4) Disposal of dead animals: The time of death or the time when the death was found was recorded, the body weight was measured, and then the dissection was quickly performed for gross observation to speculate the cause of death.

[2] = tested on: HaCaT keratinocytes; experiment: Time- and dose-dependent inhibition of proliferation of human keratinocytes, CCK-8 (Example 6); format: cell-based
Experimental: In this example, the glaucocalyxin A derivatives of the present application and pharmaceutically acceptable salts thereof were examined for the relationship between the inhibitory rate thereof on the proliferation of human keratinocytes and its concentration. Compound 23 as shown in Table 1 was used as an exemplary compound to be examined by using the following procedure.
A cell suspension was prepared and inoculated into three 96-well plates at 8000 cells in a volume of 150 μl per well, which were then cultured overnight in an incubator at 37° C., 5% CO2. On the next day, 50 μl of test compound solution at different concentrations was added to each well. Triplicate wells were set up for each concentration. A vehicle control group (without compound), a cell control group (without compound and without vehicle), and a blank medium control group (without cells, a well for null adjustment) were also set up, and cultured for additional 24, 48, and 72 hours. CCK-8 staining working solution was added at 110 μL per well, and cultured for additional 1-4 h. At the end of the culture, the absorbances were measured at 450 nm (OD450 nm) on a Bio-Tek enzyme-linked immunosorbent assay. The results were expressed as the mean OD450 nm value of the triplicates±standard deviation (x±sd). Prism Graph was used for plotting and analysis. The cell inhibitory rate of each group was calculated according to the mean value of the treatment group with each compound at each concentration and the mean value of the vehicle control group, that is, the cell inhibitory rate (%)=[1−(the mean value of the treatment group−the blank control group)/(the mean value of the vehicle control group−the blank control group)]×100%. A fitting curve was obtained by plotting the cell inhibitory rate of each group against the logarithmic concentration (Log C) of the test compound, and then the IC50 value was determined.

**Q.** Which results are given for `Br.C=C1C(=O)C23C(O)CC4C(C)(C)c5nc(N(C)C)sc5CC4(C)C2CCC1C3O` (stereo not shown) [Compound 23]?
**A.** comparative safety [1]: safer than Compound 24; toxic side effects ([1]; 5 mg/kg): No obvious toxic side effects; weight loss and decreased diet ([1]; 5 mg/kg): no significant weight loss and decreased diet; toxic side effects ([1]; 10 mg/kg): No obvious toxic side effects; weight loss and decreased diet ([1]; 10 mg/kg): no significant weight loss and decreased diet; toxic side effects ([1]; 40 mg/kg): No obvious toxic side effects; weight loss and decreased diet ([1]; 40 mg/kg): no significant weight loss and decreased diet; IC50 ([2]; 24 h, read-out: IC50 at 24 h): 1940 nM; IC50 ([2]; 48 h, read-out: IC50 at 48 h): 933 nM; IC50 ([2]; 72 h, read-out: IC50 at 72 h): 787 nM
